Measured values taken from patent US20230000813A1, “COMPOUND FOR THE TREATMENT OF BOVINE OR SWINE RESPIRATORY DISEASE” (Intervet Inc., priority 2016, published 2023).
In brackets after ≈: the same amount, converted by molar mass.

Key:
Test in all cases: MIC, broth-microdilution (CLSI VET01-A4)
Type in all cases: cell-based
[1] = system: Mannheimia haemolytica MH 10720 (154, BRD field isolate); details: Mannheimia haemolytica MH 10720; for MIC: read-out: MIC MH 10720
How it was run: (§1)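 Broth microdilution per CLSI VET01-A4 using doubling dilution series of test compound; results interpreted per CLSI VET01-S3. MIC recorded as lowest concentration giving no turbidity visible to the unaided eye.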

[2] = system: Mannheimia haemolytica MH 12587 (1071, BRD field isolate, macrolide-resistance: erm+, E+); details: Mannheimia haemolytica MH 12587, macrolide-resistant
How it was run: as §1

[3] = system: Mannheimia haemolytica MH 6357 (M7/2, reference strain, cattle infection strain); details: Mannheimia haemolytica MH 6357; read-out: MIC MH 6357
How it was run: as §1

[4] = system: Mannheimia haemolytica MH 6374 (ATCC 33396, reference strain); details: Mannheimia haemolytica MH 6374; read-out: MIC MH 6374
How it was run: as §1

[5] = system: Pasteurella multocida PM 10775 (080130003051, BRD field isolate); details: Pasteurella multocida PM 10775; for MIC: read-out: MIC PM 10775
How it was run: as §1

[6] = system: Pasteurella multocida PM 12080 (IV102277-0093, BRD field isolate); details: Pasteurella multocida PM 12080; for MIC: read-out: MIC PM 12080
How it was run: as §1

[7] = system: Pasteurella multocida PM 6267 (P 2225 (L386), reference strain, mouse infection strain); details: Pasteurella multocida PM 6267; for MIC: read-out: MIC PM 6267
How it was run: as §1

[8] = system: Pasteurella multocida PM 6391 (ATCC 43137, reference strain); details: Pasteurella multocida PM 6391; for MIC: read-out: MIC PM 6391
How it was run: as §1

[9] = system: Mannheimia haemolytica MH 13065 (XB0446-6003.9, BRD field isolate)
How it was run: (§2)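 MIC read by eye as lowest compound concentration without visible growth (no turbidity), interpreted per CLSI VET01-S3. Doubling-dilution broth-microdilution trays, run according to CLSI VET01-A4.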

[10] = system: Mannheimia haemolytica MH 13093 (XB0472-6014.1, BRD field isolate)
How it was run: as §2

SMILES	MIC [1] [µM]	MIC MH 12587 [2] [µM]	MIC [3] [µM]	MIC [4] [µM]	MIC PM 10775 [5]	MIC [6] [µM]	MIC PM 6267 [7]	MIC [8] [µM]	MIC [9] [µM]	MIC [10] [µM]	MIC [5] [µM]	MIC [7] [µM]	MIC MH 10720 [1]	MIC PM 12080 [6]	MIC PM 6391 [8]
CSC(C)(C)[C@H](NC(=O)c1ccc(C#Cc2ccc(CNCc3cccnc3)cc2)cc1)C(=O)NO [Compound 593]	0.2 (≈ 0.101 µg/mL)	0.8 (≈ 0.402 µg/mL)	0.4 (≈ 0.201 µg/mL)	0.8 (≈ 0.402 µg/mL)	<=0.1 μM	0.2 (≈ 0.101 µg/mL)	<=0.1 μM	0.8 (≈ 0.402 µg/mL)	0.4 (≈ 0.201 µg/mL)	0.8 (≈ 0.402 µg/mL)					
CSC(C)(C)[C@H](NC(=O)c1ccc(C#Cc2ccc(CNCc3ccnc(Cl)c3)cc2)cc1)C(=O)NO [Compound 594]	0.4 (≈ 0.215 µg/mL)	1.6 (≈ 0.859 µg/mL)	1.6 (≈ 0.859 µg/mL)	1.6 (≈ 0.859 µg/mL)		0.8 (≈ 0.43 µg/mL)		0.8 (≈ 0.43 µg/mL)	1.6 (≈ 0.859 µg/mL)	1.6 (≈ 0.859 µg/mL)	0.2 (≈ 0.107 µg/mL)	0.4 (≈ 0.215 µg/mL)			
CSC(C)(C)[C@H](NC(=O)c1ccc(C#Cc2ccc(CNCc3ccccn3)cc2)cc1)C(=O)NO [Compound 595]	0.2 (≈ 0.101 µg/mL)	1.6 (≈ 0.804 µg/mL)	0.8 (≈ 0.402 µg/mL)	1.6 (≈ 0.804 µg/mL)	<=0.1 μM	0.4 (≈ 0.201 µg/mL)		0.8 (≈ 0.402 µg/mL)	0.8 (≈ 0.402 µg/mL)	0.8 (≈ 0.402 µg/mL)		0.2 (≈ 0.101 µg/mL)			
CSC(C)(C)[C@H](NC(=O)c1ccc(C#Cc2ccc(CNCc3ccco3)cc2)cc1)C(=O)NO [Compound 596]		0.8 (≈ 0.393 µg/mL)	0.4 (≈ 0.197 µg/mL)	0.8 (≈ 0.393 µg/mL)	<=0.1 μM		<=0.1 μM	0.2 (≈ 0.0983 µg/mL)	0.4 (≈ 0.197 µg/mL)	0.4 (≈ 0.197 µg/mL)			<=0.1 μM	<=0.1 μM	
CSC(C)(C)[C@H](NC(=O)c1ccc(C#Cc2ccc(CNCc3cccs3)cc2)cc1)C(=O)NO [Compound 597]		1.6 (≈ 0.812 µg/mL)	0.8 (≈ 0.406 µg/mL)	0.8 (≈ 0.406 µg/mL)	<=0.1 μM		<=0.1 μM	0.2 (≈ 0.102 µg/mL)	0.8 (≈ 0.406 µg/mL)	0.8 (≈ 0.406 µg/mL)			<=0.1 μM	<=0.1 μM	
CSC(C)(C)[C@H](NC(=O)c1ccc(C#Cc2ccc(CNCc3nccs3)cc2)cc1)C(=O)NO [Compound 600]	0.2 (≈ 0.102 µg/mL)	1.6 (≈ 0.814 µg/mL)	0.8 (≈ 0.407 µg/mL)	1.6 (≈ 0.814 µg/mL)	<=0.1 μM		<=0.1 μM	0.4 (≈ 0.203 µg/mL)	0.8 (≈ 0.407 µg/mL)	0.8 (≈ 0.407 µg/mL)				<=0.1 μM	
CC(C)([C@H](NC(=O)c1ccc(C#Cc2ccc(CN3CCOCC3)cc2)cc1)C(=O)NO)S(C)(=O)=O [Compound 604]	0.2 (≈ 0.103 µg/mL)	1.6 (≈ 0.822 µg/mL)	1.6 (≈ 0.822 µg/mL)	1.6 (≈ 0.822 µg/mL)	<=0.1 μM		<=0.1 μM		0.8 (≈ 0.411 µg/mL)	1.6 (≈ 0.822 µg/mL)				<=0.1 μM	<=0.1 μM
CC(C)([C@H](NC(=O)c1ccc(C#Cc2ccc(CNCC#N)cc2)cc1)C(=O)NO)S(C)(=O)=O [Compound 612]		1.6 (≈ 0.772 µg/mL)	0.8 (≈ 0.386 µg/mL)	0.4 (≈ 0.193 µg/mL)	<=0.1 μM		<=0.1 μM		0.8 (≈ 0.386 µg/mL)	0.8 (≈ 0.386 µg/mL)			<=0.1 μM	<=0.1 μM	<=0.1 μM
CC(C)([C@H](NC(=O)c1ccc(C#Cc2ccc(CNCc3ccnc(Cl)c3)cc2)cc1)C(=O)NO)S(C)(=O)=O [Compound 614]		0.8 (≈ 0.455 µg/mL)	0.4 (≈ 0.228 µg/mL)	0.4 (≈ 0.228 µg/mL)	<=0.1 μM		<=0.1 μM		0.2 (≈ 0.114 µg/mL)	0.4 (≈ 0.228 µg/mL)			<=0.1 μM	<=0.1 μM	<=0.1 μM
CC(C)([C@H](NC(=O)c1ccc(C#Cc2ccc(CNCc3cccs3)cc2)cc1)C(=O)NO)S(C)(=O)=O [Compound 617]		0.8 (≈ 0.432 µg/mL)	0.4 (≈ 0.216 µg/mL)	0.2 (≈ 0.108 µg/mL)	<=0.1 μM		<=0.1 μM		0.2 (≈ 0.108 µg/mL)	0.4 (≈ 0.216 µg/mL)			<=0.1 μM	<=0.1 μM	<=0.1 μM
CC(C)(O)[C@H](NC(=O)c1ccc(C#Cc2ccc(CNCc3ccncc3)cc2)cc1)C(=O)NO [Compound 651]		0.4 (≈ 0.189 µg/mL)	0.4 (≈ 0.189 µg/mL)	0.2 (≈ 0.0945 µg/mL)	<=0.1 μM		<=0.1 μM		0.2 (≈ 0.0945 µg/mL)	0.4 (≈ 0.189 µg/mL)			<=0.1 μM	<=0.1 μM	<=0.1 μM
CC(C)(O)[C@H](NC(=O)c1ccc(C#Cc2ccc(CNCc3nccs3)s2)cc1)C(=O)NO [Compound 735]		0.4 (≈ 0.194 µg/mL)	0.4 (≈ 0.194 µg/mL)	0.2 (≈ 0.0969 µg/mL)			<=0.1 μM		0.2 (≈ 0.0969 µg/mL)	0.4 (≈ 0.194 µg/mL)	0.2 (≈ 0.0969 µg/mL)		<=0.1 μM	<=0.1 μM	<=0.1 μM
CSC(C)(C)[C@H](NC(=O)c1ccc(C#Cc2ccc(CNCc3ccncc3)s2)cc1)C(=O)NO [Compound 740]	0.2 (≈ 0.102 µg/mL)	1.6 (≈ 0.814 µg/mL)	0.8 (≈ 0.407 µg/mL)	0.8 (≈ 0.407 µg/mL)	<=0.1 μM			0.4 (≈ 0.203 µg/mL)	0.8 (≈ 0.407 µg/mL)	0.8 (≈ 0.407 µg/mL)		0.4 (≈ 0.203 µg/mL)		<=0.1 μM	
CSC(C)(C)[C@H](NC(=O)c1ccc(C#Cc2ccc(CNCc3nccs3)nc2)cc1)C(=O)NO [Compound 744]	0.4 (≈ 0.204 µg/mL)	1.6 (≈ 0.815 µg/mL)	0.8 (≈ 0.408 µg/mL)	0.8 (≈ 0.408 µg/mL)	<=0.1 μM	0.2 (≈ 0.102 µg/mL)		0.4 (≈ 0.204 µg/mL)	0.8 (≈ 0.408 µg/mL)	1.6 (≈ 0.815 µg/mL)		0.4 (≈ 0.204 µg/mL)			
CC(C)([C@H](NC(=O)c1ccc(C#Cc2ccc(CNCc3nccs3)s2)cc1)C(=O)NO)S(C)(=O)=O [Compound 745]		0.4 (≈ 0.219 µg/mL)	0.4 (≈ 0.219 µg/mL)	0.2 (≈ 0.109 µg/mL)	<=0.1 μM		<=0.1 μM		0.4 (≈ 0.219 µg/mL)	0.4 (≈ 0.219 µg/mL)			<=0.1 μM	<=0.1 μM	<=0.1 μM
